Test results as given in US11358989B2, “Apratyramide therapeutic agents and methods of treatment” (University of Florida Research Foundation, Incorporated, priority 2017, dated 2022).
“Also recorded” adds a separate entry of the source.

Experiments:
VEGF-A [1] = test: VEGF-A transcript level in HCT116 cells (RT-qPCR); format: cell-based, human; conditions: 16 h
Protocol: (§1) Human keratinocyte HaCaT cells and human colon cancer HCT116 cells were cultured in Dulbecco's modified Eagle's medium (DMEM) supplemented with 10% fetal bovine serum at 37° C. humidified air and 5% CO2. Human normal colon (CCD-18Co) cells (ATCC) were cultured in Eagle's minimal essential medium (EMEM) supplemented with 10% fetal bovine serum at 37° C. humidified air and 5% CO2. Human Umbilical Vein Endothelial Cells (HUVEC, cat #CC-2519, Lonza) were cultured in EGM (Lonza cat #CC-3124) under the same condition.
(§2) qPCR after reverse transcription (RT-qPCR) was performed on a 25 μL reaction solution containing a 0.3 μL aliquot of cDNA, 12.5 μL of TaqMan gene expression assay mix, 1.25 μL of probes, and 11 μL RNase-free water. qPCR was carried out on an ABI 7300 sequence detection system using the thermocycler program: 2 min at 50° C., 10 min at 95° C., and 15 s at 95° C. (40 cycles) and 1 min at 60° C. Each experiment was performed in triplicate. VEGF-A (Hs00900055_m1), PDGFB (Hs00266645_m1) and bFGF (Hs00966522_m1) were used as target genes, while GAPDH (Hs02758991_g1) was used as endogenous control. Graphs and data analysis were performed using the Prism software and analyzed using unpaired t test.

HCT116 cells = test: Cell viability assay (MTT), HCT116; format: cell-based, human; conditions: 48 h
Protocol: as §1
(§3) Cells were seeded in a 96-well clear bottom plate, and 24 h later cells were treated with various concentrations of the apratyramide or solvent control (DMSO). After 48 h of incubation, cell viability was detected using MTT according to the manufacturer's instructions (Promega, Madison, Wis.). Nonlinear regression analysis was carried out using GraphPad Prism software for IC50 value calculations.

CCD-18Co cells = test: Cell viability assay (MTT), CCD-18Co; format: cell-based, human; conditions: 48 h
Protocol: as §1, §3

VEGF-A [2] = test: VEGF-A transcript level in HaCaT cells (RT-qPCR); format: cell-based, human; conditions: for VEGF-A mRNA level induction: 30 μM; for increase of VEGF-A transcript levels: 16 h
Protocol: as §1
HaCaT cells were seeded in 6-well plates at a density of 2×10^5 per well and incubated further for 24 h in supplement-free medium prior to treatment. […] Total RNA was quantified using NanoDrop 2000. From 2 μg of total RNA, cDNA synthesis was done using SuperScript II Reverse Transcriptase (Invitrogen, Carlsbad, Calif.) and oligo (dT) (Invitrogen).
as §2

VEGF-A [3] = test: Measurement of human VEGF-A secretion from HaCaT cells (AlphaLISA); format: cell-based; conditions: 24 h
Protocol: as §1
HaCaT cells were seeded in a 96-well clear bottom plate. Cells were treated with various concentrations of apratyramide or solvent control (DMSO). After 24 h incubation, culture supernatants were collected for detection of VEGF-A using AlphaLISA kits (PerkinElmer, Waltham, Mass.) following the manufacturer's instruction. Briefly, acceptor bead and anti-VEGF-A antibody were incubated with the supernatants for 60 min, donor beads were added later and incubated for another 30 min. Signal was detected using Envision (PerkinElmer). Levels of VEGF-A (pg/mL) were calculated using a standard curve and then normalized based on cell numbers.

HaCaT cells [4] = test: Cell viability assay (MTT), HaCaT; format: cell-based, human; conditions: 24 h
Protocol: as §1
Cells were seeded in a 96-well clear bottom plate, and 24 h later cells were treated with various concentrations of the apratyramide or solvent control (DMSO). […] Nonlinear regression analysis was carried out using GraphPad Prism software for IC50 value calculations.

PDGFB = PDGFB transcript level in HaCaT cells (RT-qPCR); format: cell-based, human; conditions: 16 h
Protocol: (§4) HaCaT cells were seeded in 6-well plates at a density of 2×10^5 per well and incubated further for 24 h in supplement-free medium prior to treatment. RNA was isolated at 3, 12 or 16 h post treatment using the RNeasy mini kit (QIAGEN, Valencia, Calif.). Total RNA was quantified using NanoDrop 2000. From 2 μg of total RNA, cDNA synthesis was done using SuperScript II Reverse Transcriptase (Invitrogen, Carlsbad, Calif.) and oligo (dT) (Invitrogen).
as §2

bFGF = bFGF transcript level in HaCaT cells (RT-qPCR); format: cell-based, human; conditions: 16 h
Protocol: as §4, §2

HaCaT cells [5] = test: Transcriptome profiling of HaCaT cells (Human Transcriptome Array 2.0, IPA); format: cell-based
Protocol: as §4
RNA was analyzed using a NanoDrop spectrophotometer and Agilent 2100 Bioanalyzer to determine the RNA concentration and quality, respectively. RNA samples were processed using the GeneChip WT PLUS Reagent Kit (Affymetrix, Santa Clara, Calif.) according to the manufacturer's instruction. In brief, 250 ng of RNA were used for cDNA synthesis by reverse transcription, and the cDNA was utilized as a template for the biotin-labeled RNA prepared by in vitro transcription reaction. The labeled RNA was further purified, fragmented, and hybridized with rotation at 45° C. for 16 h to the GeneChip™ Human Transcriptome Array 2.0. The arrays were washed and stained using the GeneChip Hybridization Wash and Stain kit on an Affymetrix Fluidics Station 450. The chips were scanned using a GeneChip 7G Scanner. […]

ATF4 = ATF4 transcript (microarray) and protein (immunoblot) in HaCaT cells; format: cell-based, human
Protocol: (§5) HaCaT cells were seeded in 6-well clear bottom plate the day before treatment. The next day, cells were treated with 1 or solvent control (DMSO). 24 h later, whole cell lysates were collected using PhosphoSafe buffer (EMD Chemicals, Inc, Gibbstown, N.J.). Protein concentrations were measured with the BCA Protein Assay kit (Thermo Fisher Scientific, Rockford, Ill.). Lysates containing equal amounts of protein were separated by SDS polyacrylamide gel electrophoresis (4-12%), transferred to polyvinylidene difluoride membranes, probed with primary and secondary antibodies, and detected with the SuperSignal West Femto Maximum Sensitivity Substrate (Thermo Fisher Scientific). BIP, IRE1, β-actin and secondary anti-mouse and rabbit antibodies were from Cell Signaling Technology, Inc (Danvers, Mass.). ATF4 and ORP150 antibodies were obtained from Santa Cruz (Calif.).
(§6) RNA was analyzed using a NanoDrop spectrophotometer and Agilent 2100 Bioanalyzer to determine the RNA concentration and quality, respectively. RNA samples were processed using the GeneChip WT PLUS Reagent Kit (Affymetrix, Santa Clara, Calif.) according to the manufacturer's instruction. In brief, 250 ng of RNA were used for cDNA synthesis by reverse transcription, and the cDNA was utilized as a template for the biotin-labeled RNA prepared by in vitro transcription reaction. […]

IRE1 = IRE1 transcript (microarray) and protein (immunoblot) in HaCaT cells; format: cell-based, human
Protocol: as §5, §6

ORP150 = ORP150 transcript (microarray) and protein (immunoblot) in HaCaT cells; format: cell-based, human
Protocol: as §5, §6

HUVECs = test: In vitro angiogenesis assay (matrigel, HUVECs, HaCaT conditioned medium); format: cell-based, human; conditions: HUVECs 14 h, vs CM-DMSO
Protocol: HaCaT cells were seeded in 12-well plates in complete growth medium the day before treatment. The next day, the medium was replaced with fresh medium followed by the treatment of 1 or solvent control. After 24 h or incubation, the conditioned medium was collected for the in vitro angiogenesis assay.
HUVECs (Lonza) were used at passage 4 for this assay. In vitro Angiogenesis Assay Kit (Chemicon) was used according to the manufacturer's recommendation. Briefly, an ice-cold mixture of ECMatrix was transferred into a precooled 96-well plate. After the matrix solution had solidified (>1 h incubation at 37° C., 10,000 cells were mixed with the CM or EGM with or without the presence of VEGF-A protein, 100 ng/mL and plated into each well. After incubation at 37° C. for 14 h, images were captured for each well using a Nikon inverted microscope equipped with NIS-Elements software. Branch point counting was used as quantification method. Three random microscope view-fields were counted and the number of branch points was averaged for each well. Branch point for each group was calculated by averaging eight replicates from two independent experiments.

VEGF-A [6] = test: VEGF-A mRNA in ablated rabbit corneas, ex vivo organ culture; conditions: ablated rabbit corneas ex vivo, 25, 50 or 100 μM, 18 h
Protocol: The central 6 mm diameter area of corneas of twelve fresh rabbit globes (Pelfreeze) was ablated to a total depth of 155 microns using a Nidek excimer laser in phototherapeutic keratectomy mode. Ablated corneas were then surgically dissected from the rabbit globes using sterile scalpel and forceps, grasping only the scleral rims and not the clear cornea. The corneas were cultured in DMEM/F-12 1:1 (Thermo Fisher) containing 40 mM HEPES, 10% FBS, 0.01% dextran 40 (Tokyo Chemical Industry, Co., Ltd.) and 0.025% chondroitin sulfate (Chem-Impex International, Inc.) in 6-well plates. Twelve corneas were randomly distributed into four groups (three corneas in each group): DMSO, 25 μM, 50 μM or 100 μM apratyramide. […]
The central scar-like tissue from each cornea was collected using an 8 mm punch biopsy. […] The purified cDNA was then quantified using nanodrop and used to generate a standard curve. Serial 10-fold dilutions of the quantified cDNA amplicon were subjected to RT-qPCR using SYBR Select Master Mix (Applied Biosystems). […] The mass-normalized Ct values for the apratyramide treatment groups and DMSO control group (n=3 biological replicates per group) were analyzed by a one-way ANOVA (α=0.05, Microsoft Excel 2010, Analysis Tool Pack) followed by Tukey's HSD post hoc test manually calculated in Excel 2010 (FIG. 8).

## CC[C@H](C)[C@@H](OC(=O)[C@H](Cc1ccc(OC)cc1)N(C)C)C(=O)N[C@H](C(=O)N(C)[C@@H](Cc1ccc(O)cc1)C(=O)N(C)[C@@H](Cc1ccc(O)cc1)C(=O)OC)C(C)C [Compound 1, Apratyramide]
VEGF-A [1]
  VEGF-A transcript level: up-regulated
VEGF-A [1]; fifty micro-molar
  VEGF-A transcript levels: doubled
HCT116 cells
  cytotoxicity (antiproliferative effect): minimal cytotoxicity
CCD-18Co cells
  effects on cell viability: negligible effects
VEGF-A [2]; 4 h
  VEGF-A mRNA level induction: 1.7 fold
VEGF-A [2]; 12 h
  VEGF-A mRNA level induction: greater induction effect
VEGF-A [2]; 31.6 μM
  increase of VEGF-A transcript levels: 5 fold
VEGF-A [2]; 50 μM
  increase of VEGF-A transcript levels: 7 fold
VEGF-A [3]; 31.6 μM
  increase of VEGF-A secretion: 1.3 fold
VEGF-A [3]; 50 μM
  increase of VEGF-A secretion: 1.5 fold
HaCaT cells [4]; 31.6 μM
  cytotoxicity: without causing cytotoxicity
HaCaT cells [4]; 50 μM
  cell viability: Around ninety-percent
PDGFB
  PDGFB transcript level: stimulated
bFGF
  bFGF transcript level: stimulated
HaCaT cells [5]; 30 μM, 12 h
  VEGF-A in microarray: one of the most up-regulated genes
HaCaT cells [5]; 12 h treatment
  microRNAs in microarray: down-regulation of several microRNAs
ATF4
  ATF4 transcript and protein levels: up-regulated; also recorded: activated
IRE1
  IRE1 transcript and protein levels: up-regulated
ORP150
  ORP150 transcript and protein levels: up-regulated
HUVECs; HaCaT culture treated with 30 μM for 24 h
  angiogenesis (tube-like structure formation) with conditioned medium: rescued
HUVECs; HaCaT culture treated with 50 μM for 24 h
  angiogenesis (tube-like structure formation) with conditioned medium: rescued
VEGF-A [6]
  VEGF-A mRNA in the cornea: dose-dependent increase
